Experimental data: US20240116985A1, “STAPLED PEPTIDES AND METHODS THEREOF” (priority 2020, published 2024)
pIC50: −log10 of the molar value.

target: T1, full-length beta-Catenin (Uniprot ID P35222) (Homo sapiens, UniProt P35222); assay: Fluorescence polarization IC50 (beta-catenin / 5FAM-TCF4 10-53 competition); format: binding; settings: fluorescence polarization, beta-catenin; read-out: FP EC50
T1 construct: 10 nM full-length beta-Catenin (Uniprot ID P35222)
T1 sequence (P35222 1-781): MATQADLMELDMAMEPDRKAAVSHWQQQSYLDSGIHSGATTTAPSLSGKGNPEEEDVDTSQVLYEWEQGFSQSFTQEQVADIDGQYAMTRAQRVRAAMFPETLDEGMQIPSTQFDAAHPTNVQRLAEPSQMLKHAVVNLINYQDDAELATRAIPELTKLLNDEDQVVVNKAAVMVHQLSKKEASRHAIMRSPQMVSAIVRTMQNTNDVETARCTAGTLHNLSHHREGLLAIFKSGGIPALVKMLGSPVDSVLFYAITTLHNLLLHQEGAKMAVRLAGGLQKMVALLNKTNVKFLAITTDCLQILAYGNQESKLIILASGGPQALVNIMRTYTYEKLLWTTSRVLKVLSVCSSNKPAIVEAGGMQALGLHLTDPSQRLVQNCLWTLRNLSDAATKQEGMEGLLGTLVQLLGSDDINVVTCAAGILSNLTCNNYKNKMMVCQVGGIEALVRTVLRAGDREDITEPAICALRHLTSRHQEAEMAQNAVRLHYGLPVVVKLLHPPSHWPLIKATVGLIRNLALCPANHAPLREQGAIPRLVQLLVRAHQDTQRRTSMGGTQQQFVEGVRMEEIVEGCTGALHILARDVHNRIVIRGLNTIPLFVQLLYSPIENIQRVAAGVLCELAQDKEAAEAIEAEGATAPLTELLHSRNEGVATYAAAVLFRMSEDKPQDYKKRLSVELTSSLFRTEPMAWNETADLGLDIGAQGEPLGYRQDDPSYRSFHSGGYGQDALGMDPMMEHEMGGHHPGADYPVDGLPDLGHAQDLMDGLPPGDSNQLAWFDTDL

For `CC(=O)N1CCC[C@]12CC=CCCCC1(CCCC=CCCCOC(=O)N3CC[C@@](C(=O)N[C@@H](Cc4ccsc4)C(=O)N[C@@H](Cc4csc5ccccc45)C(=O)N[C@@H](CCC(N)=O)C(=O)O)(C3)NC(=O)[C@H](CC(N)=O)NC(=O)[C@H](CC(=O)O)NC(=O)[C@H](C)NC(=O)[C@H](C)NC(=O)[C@H](CC(=O)O)NC(=O)[C@H](CC(=O)O)NC1=O)NC(=O)[C@H](CC(C)(C)C)NC(=O)[C@H](Cc1ccccc1)NC2=O` (stereo partly drawn) [I-1027, Ac-PL3-Phe-Npg-B5-Asp-Asp-Ala-Ala-Asp-Asn-PyrS2-3Thi-BztA-Gln-OH], the pIC50 was 5.94.

same assay, conditions: fluorescence polarization; read-out: beta-Catenin FP IC50

Compared with `CC(=O)N1CCC[C@]12CC=CCCCC1(CCCC=CCCCOC(=O)N3CC[C@@](C(=O)N[C@@H](Cc4ccsc4)C(=O)N[C@@H](Cc4csc5ccccc45)C(=O)N[C@@H](CCC(N)=O)C(N)=O)(C3)NC(=O)[C@H](CC(N)=O)NC(=O)[C@H](Cc3ccccc3)NC(=O)[C@H](C)NC(=O)[C@H](CCCCNC(C)C)NC(=O)[C@H]([C@@H](C)O)NC(=O)[C@H](CC(N)=O)NC1=O)NC(=O)[C@H](CC(C)(C)C)NC(=O)[C@H](CC(=O)O)NC2=O` (stereo partly drawn) [I-2005, Ac-PL3-Asp-Npg-B5-Asn-Thr-iPrLys-Ala-Phe-Asn-PyrS2-3Thi-BztA-Gln-NH2], `CC(=O)N1CCC[C@]12CC=CCCCC1(CCCC=CCCCOC(=O)N3CC[C@@](C(=O)N[C@@H](Cc4ccsc4)C(=O)N[C@@H](Cc4csc5ccccc45)C(=O)N[C@@H](CCC(N)=O)C(N)=O)(C3)NC(=O)[C@H](CC(N)=O)NC(=O)[C@H](Cc3ccccc3)NC(=O)[C@H](C)NC(=O)[C@H](C)NC(=O)[C@H](CCC(N)=O)NC(=O)[C@H](CCC(N)=O)NC1=O)NC(=O)[C@H](CC(C)(C)C)NC(=O)[C@H](CC(=O)O)NC2=O` (stereo partly drawn) [I-1558, Ac-PL3-Asp-Npg-B5-Gln-Gln-Ala-Ala-Phe-Asn-PyrS2-3Thi-BztA-Gln-NH2] is 0.28 log units lower in pIC50: 6.45 for the first, 6.17 for the second. The first is the more potent here.

Going from `CC(=O)N1CCC[C@]12CC=CCCCC1(CCCC=CCCCOC(=O)N3CC[C@@](C(=O)N[C@@H](Cc4ccccc4)C(=O)N[C@@H](Cc4csc5ccccc45)C(=O)N[C@@H](CCC(N)=O)C(N)=O)(C3)NC(=O)[C@H](CC(C)C)NC(=O)[C@H](Cc3ccccc3)NC(=O)[C@H](C)NC(=O)[C@H](C)NC(=O)[C@H](CC(=O)O)NC(=O)[C@H](CC(=O)O)NC1=O)NC(=O)[C@H](CC(C)C)NC(=O)[C@H](CC(=O)O)NC2=O` (stereo partly drawn) [I-1402, Ac-PL3-Asp-Leu-B5-Asp-Asp-Ala-Ala-Phe-Leu-PyrS2-Phe-BztA-Gln-NH2] to `CC(=O)N1CCC[C@]12CC=CCCCC1(CCCC=CCCCOC(=O)N3CC[C@@](C(=O)N[C@@H](Cc4ccsc4)C(=O)N[C@@H](Cc4c[nH]c5cccc(Cl)c45)C(=O)N[C@@H](CCC(N)=O)C(N)=O)(C3)NC(=O)[C@H](CC(C)C)NC(=O)[C@H](Cc3ccccc3)NC(=O)[C@H](C)NC(=O)[C@H](C)NC(=O)[C@H](CC(=O)O)NC(=O)[C@H](CC(=O)O)NC1=O)NC(=O)[C@H](CC(C)(C)C)NC(=O)[C@H](CC(=O)O)NC2=O` (stereo partly drawn) [I-2177, Ac-PL3-Asp-Npg-B5-Asp-Asp-Ala-Ala-Phe-Leu-PyrS2-3Thi-4C1W-Gln-NH2], the pIC50 falls from 8.05 to 6.60 (1.45 log units).

`CC(=O)N1CCC[C@]12CC=CCCCC1(CCCC=CCCCOC(=O)N3CC[C@@](C(=O)N[C@@H](Cc4ccccc4Cl)C(=O)N[C@@H](Cc4csc5ccccc45)C(=O)N[C@@H](CCC(N)=O)C(N)=O)(C3)NC(=O)[C@H](CC(N)=O)NC(=O)[C@H](Cc3ccccc3N)NC(=O)[C@H](C)NC(=O)[C@H](C)NC(=O)[C@H](CC(=O)O)NC(=O)[C@H](CC(=O)O)NC1=O)NC(=O)[C@H](CC(C)(C)C)NC(=O)[C@H](CC(=O)O)NC2=O` (stereo partly drawn) [I-1727, Ac-PL3-Asp-Npg-B5-Asp-Asp-Ala-Ala-2NH2F-Asn-PyrS2-2C1F-BztA-Gln-NH2] and `CCNC(=O)CC[C@H](NC(=O)[C@H](Cc1csc2ccccc12)NC(=O)[C@H](Cc1ccccc1C(F)(F)F)NC(=O)[C@]12CCN(C1)C(=O)OCCCC=CCCCC1(CCCC=CC[C@]3(CCCN3C(C)=O)C(=O)N[C@@H](CC(=O)O)C(=O)N[C@@H](CC(C)(C)C)C(=O)N1)C(=O)N[C@@H](CC(=O)O)C(=O)N[C@@H](Cc1cccc(C(=O)O)c1)C(=O)N[C@@H](C)C(=O)N[C@@H](C)C(=O)N[C@@H](Cc1ccccc1)C(=O)N[C@@H](CC(C)C)C(=O)N2)C(=O)N[C@@H](C)C(N)=O` (stereo partly drawn) [I-2470, Ac-PL3-Asp-Npg-B5-Asp-3COOHF-Ala-Ala-Phe-Leu-PyrS2-2F3MeF-BztA-NHEt]GlnR-Ala-NH2] are within 0.2 log units of each other in pIC50: 7.55 for the first, 7.62 for the second.

First: CC(=O)N1CCC[C@]12CC=CCCCCC1(CCCCC=CCCOC(=O)N3CC[C@@](C(=O)N[C@@H](Cc4ccccc4C(F)(F)F)C(=O)N[C@@H](Cc4csc5ccccc45)C(=O)N[C@@H](C)C(N)=O)(C3)NC(=O)[C@H](CC(C)C)NC(=O)[C@H](Cc3ccccc3)NC(=O)[C@H](C)NC(=O)[C@H](CCC(N)=O)NC(=O)[C@H](Cc3cccc(C(=O)O)c3)NC(=O)[C@H](CC(=O)O)NC1=O)NC(=O)[C@H](CC(C)(C)C)NC(=O)[C@H](CC(=O)O)NC2=O (stereo partly drawn) [I-2519, Ac-PL3-Asp-Npg-B6-Asp-3COOHF-Gln-Ala-Phe-Leu-PyrS1-2F3MeF-BztA-Ala-NH2]
Second: CC(=O)N1CCC[C@]12CC=CCCCCC1(CCCCC=CCOC(=O)N3CC[C@@](C(=O)N[C@@H](Cc4ccccc4C(F)(F)F)C(=O)N[C@@H](Cc4csc5ccccc45)C(=O)N[C@@H](C)C(N)=O)(C3)NC(=O)[C@H](CC(C)C)NC(=O)[C@H](Cc3ccccc3)NC(=O)[C@H](C)NC(=O)[C@H](CCC(N)=O)NC(=O)[C@H](Cc3cccc(C(=O)O)c3)NC(=O)[C@H](CC(=O)O)NC1=O)NC(=O)[C@H](CC(C)(C)C)NC(=O)[C@H](CC(=O)O)NC2=O (stereo partly drawn) [I-2506, Ac-PL3-Asp-Npg-B6-Asp-3COOHF-Gln-Ala-Phe-Leu-PyrS-2F3MeF-BztA-Ala-NH2]
The pIC50 of the first is 0.55 log units higher: 7.03 for the first, 6.48 for the second.

Compared with `CC(=O)N1CCC[C@]12CC=CCCCC1(CCCC=CCCCOC(=O)N3CC[C@@](C(=O)N[C@@H](Cc4ccsc4)C(=O)N[C@@H](Cc4csc5ccccc45)C(=O)N[C@@H](Cc4ccccc4)C(N)=O)(C3)NC(=O)[C@H]([C@@H](C)O)NC(=O)[C@H](Cc3ccccc3)NC(=O)[C@H](C)NC(=O)[C@H](C)NC(=O)[C@H]([C@@H](C)O)NC(=O)[C@H](CC(N)=O)NC1=O)NC(=O)[C@H](CC(C)(C)C)NC(=O)[C@H](CC(=O)O)NC2=O` (stereo partly drawn) [I-2144, Ac-PL3-Asp-Npg-B5-Asn-Thr-Ala-Ala-Phe-Thr-PyrS2-3Thi-BztA-Phe-NH2], `CC(C)C[C@@H]1NC(=O)[C@H](Cc2ccccc2)NC(=O)[C@H](C)NC(=O)[C@H](C)NC(=O)[C@H](CN(CC(=O)O)CC(F)(F)F)NC(=O)[C@H](CC(=O)O)NC(=O)C2(CCCC=CCCCOC(=O)N3CC[C@@](C(=O)N[C@@H](Cc4ccsc4)C(=O)N[C@@H](Cc4csc5ccccc45)C(=O)N[C@@H](CCC(N)=O)C(N)=O)(C3)NC1=O)CCCC=CCS(=O)(=O)N1CCC[C@@H]1C(=O)N[C@@H](CC(=O)O)C(=O)N[C@@H](CC(C)(C)C)C(=O)N2` (stereo partly drawn) [I-2266, ProSAm3-Asp-Npg-B5-Asp-TfeGA-Ala-Ala-Phe-Leu-PyrS2-3Thi-BztA-Gln-NH2] is 0.89 log units higher in pIC50: 5.69 for the first, 6.58 for the second. The second is the more potent here.

`CC(=O)N1CCC[C@]12CC=CCCCC1(CCCC=CCCCOC(=O)N3CC[C@@](C(=O)N[C@@H](Cc4ccsc4)C(=O)N[C@@H](Cc4csc5ccccc45)C(=O)N[C@@H](CCO)C(N)=O)(C3)NC(=O)[C@H](CC(N)=O)NC(=O)[C@H](Cc3ccccc3)NC(=O)[C@H](C)NC(=O)[C@H](CCCCNC(C)C)NC(=O)[C@H](CCC(N)=O)NC(=O)[C@H](CC(=O)O)NC1=O)NC(=O)[C@H](CC1CCCCC1)NC(=O)[C@H](CC(N)=O)NC2=O` (stereo partly drawn) [I-2074, Ac-PL3-Asn-Cha-B5-Asp-Gln-iPrLys-Ala-Phe-Asn-PyrS2-3Thi-BztA-Hse-NH2] showed a pIC50 of 6.10.
